Reference: BigSolDB 2.1

Cl.NCCCC[C@H](N)C(=O)O
Details | solubility (mole fraction)
in DMSO, 282.8 K | 0.0179
in DMSO, 288.2 K | 0.0243
in DMSO, 293 K | 0.0301
in DMSO, 298.1 K | 0.0357
in DMSO, 303.3 K | 0.0391
in DMSO, 308.4 K | 0.0432
in DMSO, 312.8 K | 0.0469
in DMSO, 318.1 K | 0.0516
in DMSO, 323.2 K | 0.0529
in DMSO, 328.3 K | 0.0561
in ethanol, 288.1 K | 6.71e-06
in ethanol, 292.8 K | 8.31e-06
in ethanol, 298.1 K | 9.91e-06
in ethanol, 303 K | 1.09e-05
in ethanol, 308.1 K | 1.22e-05
in ethanol, 312.7 K | 1.41e-05
in ethanol, 318.2 K | 1.63e-05
in ethanol, 322.9 K | 1.76e-05
in ethanol, 328.3 K | 1.92e-05
in ethylene glycol, 282.9 K | 0.00769
in ethylene glycol, 288 K | 0.0108
in ethylene glycol, 293.1 K | 0.0146
in ethylene glycol, 298.2 K | 0.0183
in ethylene glycol, 303.2 K | 0.022
in ethylene glycol, 307.9 K | 0.0259
in ethylene glycol, 312.9 K | 0.0298
in ethylene glycol, 318 K | 0.0326
in ethylene glycol, 322.7 K | 0.0354
in ethylene glycol, 328.1 K | 0.0377
in methanol, 297.9 K | 0.000283
in methanol, 303 K | 0.000368
in methanol, 308.1 K | 0.000433
in methanol, 312.8 K | 0.000501
in methanol, 318.1 K | 0.00055
in methanol, 323 K | 0.000592
in methanol, 327.8 K | 0.000637
in water, 283 K | 0.0497
in water, 288.1 K | 0.0543
in water, 292.9 K | 0.0587
in water, 298.1 K | 0.0618
in water, 302.8 K | 0.0627
in water, 308 K | 0.0707
in water, 313.3 K | 0.0833
in water, 317.9 K | 0.0925
in water, 323 K | 0.102
in water, 328.2 K | 0.111
